Data taken from US20240208961A1, “EIF4E INHIBITORS AND USES THEREOF” (PIC Therapeutics, Inc., priority 2022, published 2024).
Values joined by “and” are separate entries in the source; they are usually repeats but may differ in a detail not shown here. Identical values can stand only once. Like-named read-outs stand apart in the source and are kept apart here.

Columns and labels:
NIHOVCAR3 = experiment: Cell viability assay, adherent cell line, 5 day Alamar Blue (Example 8): NIHOVCAR3; type: cell-based; conditions: Homo sapiens, OVCAR-3, 120 h, OVCAR3, Ovarian Cancer Cell
HPAFII = experiment: Cell viability assay, adherent cell line, 5 day Alamar Blue (Example 8): HPAFII; type: cell-based; conditions: Homo sapiens, HPAF-II, 120 h, Pancreatic Cancer Cell
[1] = Pharmacokinetic studies of certain compounds in female Balb/c mice (Example 5); type: in vivo; conditions: for concentration at 0.083 h / concentration at 0.25 h / concentration at 0.5 hr / concentration at 1 hr / concentration at 2 hr / concentration at 4 hr / concentration at 8 hr / concentration at 24 hr / concentration at 0.5 h / concentration at 1 h / concentration at 2 h / concentration at 4 h / concentration at 8 h / concentration at 24 h: female, Balb/c
Outline: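 Female Balb/c mice (N=9) were fasted overnight and given compound PO as a suspension in 1% CMC/0.2% Tween 80 or IV in 5% DMSO/5% Solutol HS15/90% saline. Facial-vein plasma was taken from 0.083 to 24 h and assayed by LC-MS. Parameters are non-compartmental, and F was based on AUCINF or AUClast.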

[2] = mouse, plasma, I-27 PO 30 mg/kg

With `CC(C)Cc1sc(Nc2ncc(-c3cccs3)cc2C(=O)O)nc1C1(C)CCCCC1` [Compound I-27] the IC50 (NIHOVCAR3) was 1 to 8 µM, the IC50 (HPAFII) was 1 to 8 µM and the “Plasma concentration Individual” value ([1]; I-27 IV 1 mg/kg, 0.083 hr, 1 mg/kg) was 4810 ng/mL and 5030 ng/mL. The “Plasma concentration Individual” value ([1]; I-27 IV 1 mg/kg, 0.25 hr, 1 mg/kg) was 1300 ng/mL and 1270 ng/mL, the “Plasma concentration Individual” value ([1]; I-27 IV 1 mg/kg, 0.5 hr, 1 mg/kg) was 584 ng/mL and 448 ng/mL and the “Plasma concentration Individual” value ([1]; I-27 IV 1 mg/kg, 1 hr, 1 mg/kg) was 393 ng/mL and 335 ng/mL. For the same compound, the “Plasma concentration Individual” value ([1]; I-27 IV 1 mg/kg, 2 hr, 1 mg/kg) was 213 ng/mL and 163 ng/mL, the “Plasma concentration Individual” value ([1]; I-27 IV 1 mg/kg, 4 hr, 1 mg/kg) was 31.7 ng/mL and 29.9 ng/mL and the “Plasma concentration Individual” value ([1]; I-27 IV 1 mg/kg, 8 hr, 1 mg/kg) was 5.02 ng/mL and 8.89 ng/mL. The “Plasma concentration Individual” value ([1]; I-27 IV 1 mg/kg, 24 hr, BQL = below quantifiable limit of 1.00 ng/mL, 1 mg/kg) was “BQL”, the F ([1]; I-27 PO 30 mg/kg vs IV 1 mg/kg) was 27.4% and the “Plasma concentration Individual” value ([1]; I-27 PO 30 mg/kg, 0.083 hr, 30 mg/kg) was 80.4 ng/mL and 62.5 ng/mL. For the same compound, the “Plasma concentration Individual” value ([1]; I-27 PO 30 mg/kg, 0.25 hr, 30 mg/kg) was 368 ng/mL and 587 ng/mL, the “Plasma concentration Individual” value ([1]; I-27 PO 30 mg/kg, 0.5 hr, 30 mg/kg) was 1590 ng/mL and 1270 ng/mL and the “Plasma concentration Individual” value ([1]; I-27 PO 30 mg/kg, 1 hr, 30 mg/kg) was 2120 ng/mL and 2090 ng/mL. The “Plasma concentration Individual” value ([1]; I-27 PO 30 mg/kg, 2 hr, 30 mg/kg) was 2860 ng/mL and 1950 ng/mL, the “Plasma concentration Individual” value ([1]; I-27 PO 30 mg/kg, 4 hr, 30 mg/kg) was 2160 ng/mL and 1760 ng/mL and the “Plasma concentration Individual” value ([1]; I-27 PO 30 mg/kg, 8 hr, 30 mg/kg) was 715 ng/mL and 493 ng/mL. The “Plasma concentration Individual” value ([1]; I-27 PO 30 mg/kg, 24 hr, 30 mg/kg) was 11.0 ng/mL and 10.1 ng/mL, the concentration at 0.083 h ([1]; mouse, plasma, iv, 1 mg/kg, I-27 IV 1 mg/kg, 0.083 hr, read-out: Plasma concentration Individual) was 4410 ng/mL and the concentration at 0.083 h ([1]; mouse, plasma, iv, 1 mg/kg, I-27 IV 1 mg/kg, 0.083 hr, read-out: Plasma concentration Mean) was 4750 ng/mL. For the same compound, the concentration at 0.25 h ([1]; mouse, plasma, iv, 1 mg/kg, I-27 IV 1 mg/kg, 0.25 hr, read-out: Plasma concentration Individual) was 865 ng/mL, the concentration at 0.25 h ([1]; mouse, plasma, iv, 1 mg/kg, I-27 IV 1 mg/kg, 0.25 hr, read-out: Plasma concentration Mean) was 1140 ng/mL and the concentration at 0.5 hr ([1]; mouse, plasma, iv, 1 mg/kg, I-27 IV 1 mg/kg, 0.5 hr, read-out: Plasma concentration Individual) was 638 ng/mL. It also gave a concentration at 0.5 hr ([1]; mouse, plasma, iv, 1 mg/kg, I-27 IV 1 mg/kg, 0.5 hr, read-out: Plasma concentration Mean) of 557 ng/mL, a concentration at 1 hr ([1]; mouse, plasma, iv, 1 mg/kg, I-27 IV 1 mg/kg, 1 hr, read-out: Plasma concentration Individual) of 341 ng/mL and a concentration at 1 hr ([1]; mouse, plasma, iv, 1 mg/kg, I-27 IV 1 mg/kg, 1 hr, read-out: Plasma concentration Mean) of 356 ng/mL. It also gave a concentration at 2 hr ([1]; mouse, plasma, iv, 1 mg/kg, I-27 IV 1 mg/kg, 2 hr, read-out: Plasma concentration Individual) of 142 ng/mL, a concentration at 2 hr ([1]; mouse, plasma, iv, 1 mg/kg, I-27 IV 1 mg/kg, 2 hr, read-out: Plasma concentration Mean) of 173 ng/mL and a concentration at 4 hr ([1]; mouse, plasma, iv, 1 mg/kg, I-27 IV 1 mg/kg, 4 hr, read-out: Plasma concentration Individual) of 55.9 ng/mL. It also gave a concentration at 4 hr ([1]; mouse, plasma, iv, 1 mg/kg, I-27 IV 1 mg/kg, 4 hr, read-out: Plasma concentration Mean) of 39.2 ng/mL, a concentration at 8 hr ([1]; mouse, plasma, iv, 1 mg/kg, I-27 IV 1 mg/kg, 8 hr, read-out: Plasma concentration Individual) of 7.46 ng/mL and a concentration at 8 hr ([1]; mouse, plasma, iv, 1 mg/kg, I-27 IV 1 mg/kg, 8 hr, read-out: Plasma concentration Mean) of 7.12 ng/mL. For the same compound, the concentration at 24 hr ([1]; mouse, plasma, iv, 1 mg/kg, I-27 IV 1 mg/kg, 24 hr, BQL = below quantifiable limit of 1.00 ng/mL, read-out: Plasma concentration Individual) was 1.09 ng/mL, the concentration at 24 hr ([1]; mouse, plasma, iv, 1 mg/kg, I-27 IV 1 mg/kg, 24 hr, BQL = below quantifiable limit of 1.00 ng/mL, read-out: Plasma concentration Mean) was 1.09 ng/mL and the concentration at 0.083 h ([1]; mouse, plasma, po, 30 mg/kg, I-27 PO 30 mg/kg, 0.083 hr, read-out: Plasma concentration Individual) was 40.5 ng/mL. For the same compound, the concentration at 0.083 h ([1]; mouse, plasma, po, 30 mg/kg, I-27 PO 30 mg/kg, 0.083 hr, read-out: Plasma concentration Mean) was 61.1 ng/mL, the concentration at 0.25 h ([1]; mouse, plasma, po, 30 mg/kg, I-27 PO 30 mg/kg, 0.25 hr, read-out: Plasma concentration Individual) was 448 ng/mL and the concentration at 0.25 h ([1]; mouse, plasma, po, 30 mg/kg, I-27 PO 30 mg/kg, 0.25 hr, read-out: Plasma concentration Mean) was 468 ng/mL. For the same compound, the concentration at 0.5 h ([1]; mouse, plasma, po, 30 mg/kg, I-27 PO 30 mg/kg, 0.5 hr, read-out: Plasma concentration Individual) was 2080 ng/mL, the concentration at 0.5 h ([1]; mouse, plasma, po, 30 mg/kg, I-27 PO 30 mg/kg, 0.5 hr, read-out: Plasma concentration Mean) was 1650 ng/mL and the concentration at 1 h ([1]; mouse, plasma, po, 30 mg/kg, I-27 PO 30 mg/kg, 1 hr, read-out: Plasma concentration Individual) was 1930 ng/mL. It also gave a concentration at 1 h ([1]; mouse, plasma, po, 30 mg/kg, I-27 PO 30 mg/kg, 1 hr, read-out: Plasma concentration Mean) of 2050 ng/mL, a concentration at 2 h ([1]; mouse, plasma, po, 30 mg/kg, I-27 PO 30 mg/kg, 2 hr, read-out: Plasma concentration Individual) of 2040 ng/mL and a concentration at 2 h ([1]; mouse, plasma, po, 30 mg/kg, I-27 PO 30 mg/kg, 2 hr, read-out: Plasma concentration Mean) of 2280 ng/mL. It also gave a concentration at 4 h ([1]; mouse, plasma, po, 30 mg/kg, I-27 PO 30 mg/kg, 4 hr, read-out: Plasma concentration Individual) of 2050 ng/mL, a concentration at 4 h ([1]; mouse, plasma, po, 30 mg/kg, I-27 PO 30 mg/kg, 4 hr, read-out: Plasma concentration Mean) of 1990 ng/mL and a concentration at 8 h ([1]; mouse, plasma, po, 30 mg/kg, I-27 PO 30 mg/kg, 8 hr, read-out: Plasma concentration Individual) of 613 ng/mL. It also gave a concentration at 8 h ([1]; mouse, plasma, po, 30 mg/kg, I-27 PO 30 mg/kg, 8 hr, read-out: Plasma concentration Mean) of 607 ng/mL, a concentration at 24 h ([1]; mouse, plasma, po, 30 mg/kg, I-27 PO 30 mg/kg, 24 hr, read-out: Plasma concentration Individual) of 14.2 ng/mL and a concentration at 24 h ([1]; mouse, plasma, po, 30 mg/kg, I-27 PO 30 mg/kg, 24 hr, read-out: Plasma concentration Mean) of 11.8 ng/mL. It also gave an AUC(0-inf) ([1]; mouse, plasma, I-27 IV 1 mg/kg) of 2170 ng·h/mL, an AUC(0-t) ([1]; mouse, plasma, I-27 IV 1 mg/kg) of 2160 ng·h/mL and a C0 ([1]; mouse, plasma, I-27 IV 1 mg/kg) of 9630 ng/mL. It also gave an MRT inf ([1]; mouse, plasma, I-27 IV 1 mg/kg) of 1.13 h, an MRT last ([1]; mouse, plasma, I-27 IV 1 mg/kg) of 1.04 h and a clearance ([1]; mouse, plasma, I-27 IV 1 mg/kg) of 7.68 mL/min/kg. It also gave a half-life ([1]; mouse, plasma, I-27 IV 1 mg/kg) of 4.29 h, a Vd ([1]; mouse, plasma, I-27 IV 1 mg/kg, read-out: Vss) of 0.52 L/kg and an AUC(0-inf) [1, 2] of 17900 ng·h/mL. For the same compound, the AUC(0-t) [1, 2] was 17800 ng·h/mL, the Cmax [1, 2] was 2280 ng/mL and the MRT inf [1, 2] was 4.74 h. It also gave an MRT last [1, 2] of 4.68 h, a Tmax [1, 2] of 2 h and a half-life [1, 2] of 2.73 h.
